# Experimental data taken from US8486977B2, “1,2,3-triazole derivatives for use as stearoyl-CoA desaturase inhibitors” (GlaxoSmithKline LLC, priority 2007, dated 2013).
row,melting point,Structure (SMILES)
1,213 °C,"COC(=O)c1ccc(OC)c(NC(=O)c2nnn(Cc3cc(Cl)cc(Cl)c3)c2C)c1 [Example 41, Methyl 3-[({1-[(3,5-dichlorophenyl)methyl]-5-methyl-1H-1,2,3-triazol-4-yl}carbonyl)amino]-4-(methyloxy)benzoate]"
2,183.7 °C,"CNC(=O)c1ccc(NC(=O)c2nnn(Cc3ccc(Cl)c(Cl)c3)c2C)cc1 [Example 19, 1-[(3,4-Dichlorophenyl)methyl]-5-methyl-N-{4-[(methylamino)carbonyl]phenyl}-1H-1,2,3-triazole-4-carboxamide]"
3,203 °C,"COC(=O)c1ccc(OC)c(NC(=O)c2nnn(Cc3ccc(Cl)c(Cl)c3)c2C)c1 [Example 25, Methyl 3-[({1-[(3,4-dichlorophenyl)methyl]-5-methyl-1H-1,2,3-triazol-4-yl}carbonyl)amino]-4-(methyloxy)benzoate]"
4,218.2 °C,"COc1ccc(C(N)=O)cc1NC(=O)c1nnn(Cc2ccc(Cl)c(Cl)c2)c1C [Example 33, N-[5-(Aminocarbonyl)-2-(methyloxy)phenyl]-1-[(3,4-dichlorophenyl)methyl]-5-methyl-1H-1,2,3-triazole-4-carboxamide]"
5,136 °C,"COc1cc(CO)ccc1NC(=O)c1nnn(Cc2ccc(Cl)c(Cl)c2)c1C [Example 49, 1-[(3,4-Dichlorophenyl)methyl]-N-[4-(hydroxymethyl)-2-(methyloxy)phenyl]-5-methyl-1H-1,2,3-triazole-4-carboxamide]"
6,131.8 °C,"CCOC(=O)c1cccc(NC(=O)c2nnn(Cc3ccc(Cl)c(Cl)c3)c2C)c1 [Example 20, Ethyl 3-[({1-[(3,4-dichlorophenyl)methyl]-5-methyl-1H-1,2,3-triazol-4-yl}carbonyl)amino]benzoate]"
7,192.2 °C,"CCNC(=O)c1cccc(NC(=O)c2nnn(Cc3ccc(Cl)c(Cl)c3)c2C)c1 [Example 67, 1-[(3,4-Dichlorophenyl)methyl]-N-{3-[(ethylamino)carbonyl]phenyl}-5-methyl-1H-1,2,3-triazole-4-carboxamide]"
8,202.4 °C,"CC(=O)Nc1ccc(NC(=O)c2nnn(Cc3ccc(Cl)c(Cl)c3)c2C)cc1 [Example 22, N-[4-(Acetylamino)phenyl]-1-[(3,4-dichlorophenyl)methyl]-5-methyl-1H-1,2,3-triazole-4-carboxamide]"
9,212 °C,"COC(=O)c1ccc(NC(=O)c2nnn(Cc3ccc(Cl)c(Cl)c3)c2C)c(OC)c1 [Example 17, Methyl 4-[({1-[(3,4-dichlorophenyl)methyl]-5-methyl-1H-1,2,3-triazol-4-yl}carbonyl)amino]-3-(methyloxy)benzoate]"
10,192.5 °C,Cc1c(C(=O)Nc2cccc(O)c2)nnn1Cc1ccc(Cl)c(Cl)c1
11,198 °C,"COc1ccc(CO)cc1NC(=O)c1nnn(Cc2ccc(Cl)c(Cl)c2)c1C [Example 51, 1-[(3,4-Dichlorophenyl)methyl]-N-[5-(hydroxymethyl)-2-(methyloxy)phenyl]-5-methyl-1H-1,2,3-triazole-4-carboxamide]"
12,188.4 °C,"CC(=O)NCc1cccc(NC(=O)c2nnn(Cc3ccc(Cl)c(Cl)c3)c2C)c1 [Example 43, N-{3-[(Acetylamino)methyl]phenyl}-1-[(3,4-dichlorophenyl)methyl]-5-methyl-1H-1,2,3-triazole-4-carboxamide]"
13,170 °C,C=C(C)c1ccc(NC(=O)c2nnn(Cc3ccc(Cl)c(Cl)c3)c2C)c(OC)c1
14,174.3 °C,"Cc1c(CO)cccc1NC(=O)c1nnn(Cc2ccc(Cl)c(Cl)c2)c1C [Example 23, 1-[(3,4-Dichlorophenyl)methyl]-N-[3-(hydroxymethyl)-2-methylphenyl]-5-methyl-1H-1,2,3-triazole-4-carboxamide]"
15,> 260 °C,"Cc1c(C(=O)Nc2ccc(C(=O)O)cc2)nnn1Cc1ccc(Cl)c(Cl)c1 [Example 66, 4-[({1-[(3,4-Dichlorophenyl)methyl]-5-methyl-1H-1,2,3-triazol-4-yl}carbonyl)amino]benzoic acid]"
16,206.4 °C,"COC(=O)c1ccc(Cl)c(NC(=O)c2nnn(Cc3ccc(Cl)c(Cl)c3)c2C)c1 [Example 34, Methyl 4-chloro-3-[({1-[(3,4-dichlorophenyl)methyl]-5-methyl-1H-1,2,3-triazol-4-yl}carbonyl)amino]benzoate]"
17,138 °C,"COc1ccc(CCO)cc1NC(=O)c1nnn(Cc2ccc(Cl)c(Cl)c2)c1C [Example 54, 1-[(3,4-Dichlorophenyl)methyl]-N-[5-(2-hydroxyethyl)-2-(methyloxy)phenyl]-5-methyl-1H-1,2,3-triazole-4-carboxamide]"
18,190.7 °C,"Cc1c(C(=O)Nc2cccc(C(=O)NCCO)c2)nnn1Cc1ccc(Cl)c(Cl)c1 [Example 68, 1-[(3,4-Dichlorophenyl)methyl]-N-(3-{[(2-hydroxyethyl)amino]carbonyl}phenyl)-5-methyl-1H-1,2,3-triazole-4-carboxamide]"
19,222.2 °C,"CNC(=O)c1ccc(OC)c(NC(=O)c2nnn(Cc3ccc(Cl)c(Cl)c3)c2C)c1 [Example 69, 1-[(3,4-Dichlorophenyl)methyl]-5-methyl-N-[5-[(methylamino)carbonyl]-2-(methyloxy)phenyl]-1H-1,2,3-triazole-4-carboxamide]"

# The remaining lines, values behind:
row,Structure (SMILES),melting point
1,"Cc1c(CNc2cc(CO)cc(CO)c2)nnn1Cc1ccc(Cl)c(Cl)c1 [Example 79, {5-[({1-[(3,4-Dichlorophenyl)methyl]-5-methyl-1H-1,2,3-triazol-4-yl}methyl)amino]benzene-1,3-diyl}dimethanol]",120 °C
2,"Cc1c(CO)cccc1NC(=O)c1nnn(Cc2cc(Cl)cc(Cl)c2)c1C [Example 42, 1-[(3,5-Dichlorophenyl)methyl]-N-[3-(hydroxymethyl)-2-methylphenyl]-5-methyl-1H-1,2,3-triazole-4-carboxamide]",185 °C
3,Cc1c(C(=O)Nc2ccc(OCCC(C)C)cc2)nnn1Cc1ccc(C(C)C)cc1,114 °C (dec.)
4,"CCOC(=O)Cc1ccc(NC(=O)c2nnn(Cc3ccc(Cl)c(Cl)c3)c2C)cc1 [Example 27, Ethyl {4-[({1-[(3,4-dichlorophenyl)methyl]-5-methyl-1H-1,2,3-triazol-4-yl}carbonyl)amino]phenyl}acetate]",139 °C
5,"Cc1c(C(=O)Nc2ccc(Cl)c(CO)c2)nnn1Cc1ccc(Cl)c(Cl)c1 [Example 45, N-[4-Chloro-3-(hydroxymethyl)phenyl]-1-[(3,4-dichlorophenyl)methyl]-5-methyl-1H-1,2,3-triazole-4-carboxamide]",190.3 °C
6,"Cc1c(C(=O)Nc2cc(CO)cc(CO)c2)nnn1Cc1cccc(Cl)c1 [Example 61, -[3,5-bis(Hydroxymethyl)phenyl]-1-[(3-chlorophenyl)methyl]-5-methyl-1H-1,2,3-triazole-4-carboxamide]",192.7 °C
7,COc1ccc(NC(=O)c2nnn(Cc3ccc(F)cc3)c2C)cc1OC,119.7 °C
8,"Cc1c(C(=O)Nc2ccc(CO)cc2)nnn1Cc1ccc(F)cc1 [Example 90, 1-[(4-Fluorophenyl)methyl]-N-[4-(hydroxymethyl)phenyl]-5-methyl-1H-1,2,3-triazole-4-carboxamide]",145.6 °C
9,"Cc1c(C(=O)Nc2cccc(CO)c2)nnn1Cc1cccc(F)c1 [Example 89, 1-[(3-Fluorophenyl)methyl]-N-[3-(hydroxymethyl)phenyl]-5-methyl-1H-1,2,3-triazole-4-carboxamide]",124.7 °C
10,"Cc1c(C(=O)Nc2ccc(OCCN(C)C)c(CO)c2)nnn1Cc1ccc(Cl)c(Cl)c1 [Example 77, 1-[(3,4-Dichlorophenyl)methyl]-N-[4-{[2-(dimethylamino)ethyl]oxy}-3-(hydroxymethyl)phenyl]-5-methyl-1H-1,2,3-triazole-4-carboxamide]",163.1 °C
11,"Cc1c(C(=O)Nc2cccc(CO)c2)nnn1Cc1cc(Cl)cc(Cl)c1 [Example 40, 1-[(3,5-Dichlorophenyl)methyl]-N-[3-(hydroxymethyl)phenyl]-5-methyl-1H-1,2,3-triazole-4-carboxamide]",159 °C
12,"Cc1c(C(=O)Nc2ccc(CO)c(CO)c2)nnn1Cc1cccc(F)c1 [Example 85, N-[3,4-bis(Hydroxymethyl)phenyl]-1-[(3-fluorophenyl)methyl]-5-methyl-1H-1,2,3-triazole-4-carboxamide]",157.2 °C
13,"Cc1c(C(=O)Nc2cc(CO)cc(CO)c2)nnn1Cc1cccc(F)c1 [Example 84, N-[3,5-bis(Hydroxymethyl)phenyl]-1-[(3-fluorophenyl)methyl]-5-methyl-1H-1,2,3-triazole-4-carboxamide]",173.1 °C
14,"Cc1c(C(=O)Nc2cccc(C(C)(C)O)c2)nnn1Cc1ccc(Cl)c(Cl)c1 [Example 76, 1-[(3,4-Dichlorophenyl)methyl]-N-[3-(1-hydroxy-1-methylethyl)phenyl]-5-methyl-1H-1,2,3-triazole-4-carboxamide]",58 °C
15,"Cc1c(C(=O)Nc2cccc(CO)c2)nnn1Cc1ccc(Cl)c(Cl)c1 [Example 24, 1-[(3,4-Dichlorophenyl)methyl]-N-[3-(hydroxymethyl)phenyl]-5-methyl-1H-1,2,3-triazole-4-carboxamide]",185.2 °C
16,"Cc1c(C(=O)Nc2cccc(CO)c2)nnn1Cc1ccc(F)cc1 [Example 87, 1-[(4-Fluorophenyl)methyl]-N-[3-(hydroxymethyl)phenyl]-5-methyl-1H-1,2,3-triazole-4-carboxamide]",142.1 °C
17,COc1ccc(NC(=O)c2nnn(Cc3ccc(Br)cc3)c2C)cc1OC,173 °C
18,"Cc1c(C(=O)Nc2ccc(-c3ncco3)cc2)nnn1Cc1ccc(Cl)c(Cl)c1 [Example 15, 1-[(3,4-Dichlorophenyl)methyl]-5-methyl-N-[4-(1,3-oxazol-2-yl)phenyl]-1H-1,2,3-triazole-4-carboxamide]",218 °C
19,COc1ccc(NC(=O)c2nnn(Cc3ccc(C)cc3)c2C)cc1OC,156 °C (dec.)
20,"Cc1c(C(=O)Nc2cc(CO)cc(CO)c2)nnn1Cc1ccc(F)cc1 [Example 81, N-[3,5-bis(Hydroxymethyl)phenyl]-1-[(4-fluorophenyl)methyl]-5-methyl-1H-1,2,3-triazole-4-carboxamide]",180.3 °C
